The results in this text go back to patent US20050136472A1, “Methods for identification of ligands or modulators of 2871 receptor, a G-protein coupled receptor” (Millennium Pharmaceuticals, Inc., priority 2001, published 2005).

For orientation: EC50 means the midpoint of the concentration-response curve.

Test [1] addresses T1, 2871 receptor (Homo sapiens, UniProt Q9BY21).
T1 construct: encodes a full length 2871 receptor protein; myc (on only one of the two constructs made); expressed in transfected cells
Description: FLIPR calcium mobilization screening of 2871 receptor-transfected cells. In kind it is cell-based. The following applies: HEK293G16 cells stably transfected with 2871 receptor protein; for calcium mobilization response: concentration response; for EC50: calcium mobilization. As to the method:
The 2871 receptor proteins were expressed in either human embryonic kidney 293 (HEK293) cells or CHO cells, both of which were stably transfected with cDNA encoding the promiscuous G-protein Gal6. A pEF6 vector (invitrogene) including a cDNA of 2871 comprising only the open reading frame (ORF) or 5′-myc tagged ORF was constructed. Cells were transfected with individual construct by lipofectamine (GIBCO) and selected in the presence of 20 ug/ml Blasticidine. After 3 weeks of selection, drug resistant cells were subcloned to obtain individual clones by limited dilution. To isolate cell lines stably expressing the 2871 receptor protein, about 48 clones were typically selected and analyzed. The expression level for myc-tagged 2871 on individual clones was evaluated by using anti-myc Ab staining and FACScan analysis. The expression level for un-tagged 2871 was evaluated by mRNA analysis using standard Taqman techniques and comparing with mRNA expression of myc-tagged 2871 clones. HEK293G16 or CHOG16 cells transfected with the vector alone serve as negative controls. The clones with the highest expression of 2871 as well as good morphology and growth were used for the screening experiments.
The functional screening procedure involves the use of transfected mammalian cells (CHO, HEK293, RBL, L1.2 etc.) containing a cDNA encoding the 2871 peptides to express the receptor on the cell surface. The cells were loaded with a calcium dependent dye such as fura 2 that produces a fluorescent signal when bound to calcium.
Cells were bound to a receptor agonist, such as Ap6A. Any change in fluorescent signal was measured over a defined period of time using a Fluorescence Imaging Plate Reader (FLIPR) (See Sullivan E, et al. Measurement of [Ca^2+] using the Fluorometric Imaging Plate Reader (FLIPR). Methods Mol Biol 1999;114:125-133.)
Cells were exposed to putative ligands and/or modulators and evaluated for agonist induced calcium mobilization. Cell lines transfected with vector alone served as negative controls in the same screening procedures for agents initially identified as putative ligands and/or modulators.
(§1) 2871 receptor-transfectants (IIEK293 (60,000 cells/well) or CHO cells (30,000 cells/well)) were seeded into poly-D-lysine-coated 96-well black-wall, clear-bottom microtiter plates 24 hours prior to assay. Cells were loaded for 1 hour with 2 μM Fluo-3-AM fluorescent indicator dye (Molecular Probes) in assay buffer (Hank's balanced salt solution, 10 mM HEPES, 0.1% BSA, 2.5 mM probenecid), washed three times with assay buffer, and then applied to FLIPR for analysis.
Bio-active lipids were screened at final concentration of 200 nM and 1 μM. Nucleotides were screened at final concentration of 1 μM and 2 μM. The ratio of net change (maximum subtracting minimum) in fluorescence over baseline was used to determine agonist response. Positive responses were confirmed by checking original raw responsive curve.
Concentration response curve data were fitted by Graphpad Prism 2.1 (Graphpad software, Inc., San Diego).
Background: Calcium assays in cells follow changes in intracellular calcium, usually with a dye or a luminescent sensor.

Test [2] deals with T1, 2871 receptor. Description: Desensitization of calcium mobilization response by sequential adenosine nucleotide treatment (FLIPR). In kind it is cell-based. To be noted: for desensitization of calcium mobilization response to subsequent adenosine nucleotide treatment: additional treatment five to six minutes after initial dose. As to the method: as §1
Furthermore, calcium mobilization response was selectively desensitized treatment with adenosine nucleotide was followed by subsequent treatment with additional adenosine nucleotide. Initial treatment with adenosine nucleotide was followed by additional treatment five to six minutes after initial dose. Treatment and data analysis were as described supra.

T1 sequence (Q9BY21 whole entry): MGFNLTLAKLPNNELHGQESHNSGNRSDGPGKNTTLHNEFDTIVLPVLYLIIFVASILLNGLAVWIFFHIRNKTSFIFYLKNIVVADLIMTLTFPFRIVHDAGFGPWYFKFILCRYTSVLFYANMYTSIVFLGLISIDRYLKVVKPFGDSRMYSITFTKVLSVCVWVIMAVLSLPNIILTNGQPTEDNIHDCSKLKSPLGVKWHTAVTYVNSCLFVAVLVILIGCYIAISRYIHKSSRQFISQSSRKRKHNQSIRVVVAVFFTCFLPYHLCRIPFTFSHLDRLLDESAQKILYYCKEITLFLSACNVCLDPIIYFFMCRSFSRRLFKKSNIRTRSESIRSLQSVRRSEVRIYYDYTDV

For `Nc1ncnc2c1ncn2[C@@H]1O[C@H](COP(=O)(O)OP(=O)(O)O[C@H]2O[C@H](CO)[C@@H](O)[C@H](O)[C@@H]2O)[C@@H](O)[C@H]1O` [ADP-mannose], on 2871 receptor [1], the calcium mobilization response result is reported as “dose-dependent”.
For `Nc1ncnc2c1ncn2C1OC(COP(=O)(O)OP(=O)(O)OCC2OC(O)C(O)C2O)C(O)C1O` (stereo not shown) [ADP-ribose, adenosine di-phosphate-ribose], on 2871 receptor [1], the calcium mobilization response result was “dose-dependent” and the EC50 lay in the range of 400 to 800 nM.
Regarding `Nc1ncnc2c1ncn2[C@@H]1O[C@H](COP(=O)(O)O)[C@@H](O)[C@H]1O` [AMP, adenosine monophosphate], on 2871 receptor [1], the calcium mobilization response entry is “dose-dependent” and the EC50 was 500 to 800 nM. Also, the “desensitization of calcium mobilization response to subsequent adenosine nucleotide treatment” value on 2871 receptor [2] is on record as “conferred desensitization to subsequent AMP treatment”.
In the case of `Nc1ncnc2c1ncn2[C@@H]1O[C@H](COP(=O)(O)OP(=O)(O)OC[C@H]2O[C@@H](n3cnc4c(N)ncnc43)[C@H](O)[C@@H]2O)[C@@H](O)[C@H]1O` [AP2A], at 2871 receptor [1], the calcium mobilization response entry is given as “dose-dependent”.
As to `Nc1ncnc2c1ncn2[C@@H]1O[C@H](COP(=O)(O)OP(=O)(O)OP(=O)(O)OC[C@H]2O[C@@H](n3cnc4c(N)ncnc43)[C@H](O)[C@@H]2O)[C@@H](O)[C@H]1O` [AP3A], at 2871 receptor [1], the calcium mobilization response result is listed as “dose-dependent”.
As for di-adenosine hexaphosphate [AP6A], on 2871 receptor [1], the calcium mobilization response result is given as “dose-dependent” and the EC50 was in the range of 200 to 400 nM. In addition, the “desensitization of calcium mobilization response to subsequent adenosine nucleotide treatment” value on 2871 receptor [2] is reported as “effectively desensitized 2871 receptor to subsequent treatment with either AP6A or AMP”. For the same molecule, the “agonist activity after initial AMP treatment” value at 2871 receptor [2] (second treatment five to six minutes after initial AMP dose) is recorded as “retained agonist activity”.
Take di-adenosine pentaphosphate [AP5A]: at 2871 receptor [1], the calcium mobilization response result is listed as “dose-dependent” and the EC50 was 1200 to 1800 nM.
In the same order, the values of di-adenosine tetraphosphate [AP4A] are “dose-dependent” and 1800 to 2000 nM.
